Measured values as given in patent US20050256181A1, “Treating a viral disorder” (ELIXIR PHARMACEUTICALS, INC., priority 2004, published 2005).

Each compound was assayed against T1, SirT1 (Homo sapiens, UniProt Q96EB6) (assay: SirT1 p53-382 enzymatic deacetylation assay (fluorogenic Fluor-de-Lys principle)).
T1 sequence (Q96EB6 1-747): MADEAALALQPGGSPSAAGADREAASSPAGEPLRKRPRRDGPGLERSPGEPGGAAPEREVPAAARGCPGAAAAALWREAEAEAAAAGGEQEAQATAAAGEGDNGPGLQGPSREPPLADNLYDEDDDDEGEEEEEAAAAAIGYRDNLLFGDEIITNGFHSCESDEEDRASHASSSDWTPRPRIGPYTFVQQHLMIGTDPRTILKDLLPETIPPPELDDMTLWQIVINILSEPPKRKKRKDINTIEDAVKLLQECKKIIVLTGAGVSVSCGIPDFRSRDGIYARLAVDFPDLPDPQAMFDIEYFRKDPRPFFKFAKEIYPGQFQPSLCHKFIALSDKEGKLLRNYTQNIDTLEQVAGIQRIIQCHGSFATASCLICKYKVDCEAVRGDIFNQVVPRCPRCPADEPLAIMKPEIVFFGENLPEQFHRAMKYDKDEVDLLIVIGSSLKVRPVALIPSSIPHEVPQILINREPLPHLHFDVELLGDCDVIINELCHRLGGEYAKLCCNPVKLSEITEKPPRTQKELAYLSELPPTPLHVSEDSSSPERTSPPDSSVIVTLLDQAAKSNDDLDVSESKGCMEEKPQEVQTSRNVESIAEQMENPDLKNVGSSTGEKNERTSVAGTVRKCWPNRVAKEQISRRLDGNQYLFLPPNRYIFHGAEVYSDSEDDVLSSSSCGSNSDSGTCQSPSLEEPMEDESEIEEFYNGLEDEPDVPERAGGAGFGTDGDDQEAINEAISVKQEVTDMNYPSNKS
Format: biochemical
Description: An exemplary assay method includes a 1536 well format of the SirT1 enzymatic assay that is based on the commercial “Fluor-de-Lys” assay principle by Biomol, which is fluorogenic (www.biomol.com/store/Product_Data_PDFs/ak500.pdf). In this assay, deacetylation of the e-amino function of a lysyl residue is coupled to a fluorogenic “development step that is dependent on the unblocked e-amino functionality and generates fluorescent aminomethylcoumarin. Fluorescence can be read on a commercial macroscopic reader.
An IC50 of over 10 µM was found for `NC(=O)C1Cc2c([nH]c3ccccc23)CN1` (centres unmarked) [Compound 2, 2,3,4,9-Tetrahydro-1H-b-carboline-3-carboxylic acid amide] in this work.
An IC50 of under 1 µM was found for `NC(=O)C1CCc2c1[nH]c1ccc(Cl)cc21` (centres unmarked) [Compound 1, 7-Chloro-1,2,3,4-tetrahydro-cyclopenta[b]indole-3-carboxylic acid amide] in this work.
An IC50 of 1 to 10 µM was found for `O=C(Nc1ccc(Cl)cn1)C1CCCc2c1[nH]c1ccc(Cl)cc21` (centres unmarked) [Compound 11, 6-Chloro-2,3,4,9-tetrahydro-1H-carbazole-1-carboxylic acid (5-chloro-pyridin-2-yl)-amide] in this work.
An IC50 of 1 to 10 µM was found for `NC(=O)C1CCc2c([nH]c3ccc(Br)cc23)C1` (centres unmarked) [Compound 3, 6-Bromo-2,3,4,9-tetrahydro-1H-carbazole-2-carboxylic acid amide] in this work.
An IC50 of over 10 µM was found for `NC(=O)C1CCc2c([nH]c3ccc(Cl)cc23)C1` (centres unmarked) [Compound 9, 6-Chloro-2,3,4,9-tetrahydro-1H-carbazole-2-carboxylic acid amide] in this work.
An IC50 of over 10 µM was found for `Cc1ccc2[nH]c3c(c2c1)CCCC3(C)C(N)=O` (centres unmarked) [Compound 12, 1,6-Dimethyl-2,3,4,9-tetrahydro-1H-carbazole-1-carboxylic acid amide] in this work.
An IC50 of 1 to 10 µM was found for `NC(=O)C1CCc2c1[nH]c1ccccc21` (centres unmarked) [Compound 10, 1,2,3,4-Tetrahydro-cyclopenta[b]indole-3-carboxylic acid amide] in this work.
An IC50 of over 10 µM was found for `NC(=O)C1CCc2c([nH]c3ccc(OC(F)(F)F)cc23)C1` (centres unmarked) [Compound 13, 6-Trifluoromethoxy-2,3,4,9-tetrahydro-1H-carbazole-2-carboxylic acid amide] in this work.
